In paper PMC9650711, “Hydroxyl-Rich Hydrophilic Endocytosis-Promoting Peptide with No Positive Charge” (Journal of the American Chemical Society, 2022):
Numbered stars: 1 amine (or outer) side, 2 acyl side, 3 side chain; on linkers, the order of the positions; unused ones are H or OH. Bridge positions count the residues as written; N and C are the ends. Square brackets hold non-standard residues; d marks the D form. Triazole bridges read from a SMILES are 1,4-linked. Peptide text beside a SMILES is read from it. * marks the point of attachment. RhodamineB = CCN(CC)c1ccc2c(-c3ccccc3C(=O)*)c3ccc(=[N+](CC)CC)cc-3oc2c1; Lys(N3) = [N-]=[N+]=NCCCC[C@H](N)C(=O)O; NMeGABA = CN(CCCC(=O)[*:2])[*:1]; Pra = C#CC[C@H](N)C(=O)O

Key:
full-length FIBCD1 = molecular target: T1, full-length FIBCD1 (Homo sapiens, UniProt Q8N539); test: Fluorescence polarization (FP) assay; assay type: binding; conditions: RB conjugates 50 nM, 1% BSA/PBST, room temperature 30 min, Hill fit; recombinant full-length FIBCD1 from CHO cells
T1 construct: We overexpressed full-length FIBCD1 in CHO cells, extracted and purified the protein; host or cells: ExpiCHO (CHO) cells
T1 sequence (Q8N539 1-461): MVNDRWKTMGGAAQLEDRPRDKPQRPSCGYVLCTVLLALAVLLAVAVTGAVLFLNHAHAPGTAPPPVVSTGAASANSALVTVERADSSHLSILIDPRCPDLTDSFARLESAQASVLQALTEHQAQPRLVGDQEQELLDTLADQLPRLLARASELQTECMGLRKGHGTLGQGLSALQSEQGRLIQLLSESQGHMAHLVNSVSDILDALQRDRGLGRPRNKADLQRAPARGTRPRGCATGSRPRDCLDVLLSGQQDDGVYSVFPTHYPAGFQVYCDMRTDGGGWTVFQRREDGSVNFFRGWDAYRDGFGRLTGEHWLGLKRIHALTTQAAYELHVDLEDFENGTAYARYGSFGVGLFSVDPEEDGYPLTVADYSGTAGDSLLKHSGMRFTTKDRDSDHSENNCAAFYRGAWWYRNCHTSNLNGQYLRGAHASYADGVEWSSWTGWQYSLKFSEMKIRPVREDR
Description: experiment. Poly-A selective RNA-seq libraries were prepared using the NEB NextUltra II kit (New England Biolabs) and sequenced on an Illumina NextSeq500 with 2×75 pair-end reads. The obtained sequencing data was preprocessed using fastp, aligned using STAR, and counted using featureCounts. Differentially expressed genes were identified using DESeq2. The sequence data and analysis reports are deposited in the GEO repository (Accession # GSE202764) […]
U87 cells were incubated with 500 nM RB-EPP6 and YOYO, together with chondroitin sulfate (CSA) in complete media. After 1 h, trypsin was used to detach the cells. Cell pellets were collected by centrifugation. Fresh phenol-free medium was added to each condition. […]
Human FIBCD1 cDNA with an MYC-DDK tag was ordered from Origene (#RC206180) and was expressed using the mammalian expression system kit ExpiCHOTM (#A29133) as generally described by MAN0014337. […] The obtained full-length FIBCD1 was quantified using BCA.
Fluorescence polarization (FP) assay
Solutions of RB-EPPs (in 1% BSA/PBST) were added to different concentrations of full-length FIBCD1 (in 1% BSA/PBST). […] The solutions were incubated at room temperature for 30 minutes on an orbital shaker, and the fluorescence polarization values were quantified using a BioTek Synergy H1 plate reader, with an FP filter set (excitation 530/25, emission 590/35). […]

MDCK cell monolayers = assay type: in vitro ADME, canine
Description: FIBCD1 Lentiviral target, at different multiplicities of infection (MOI) levels. The cells were then incubated at 37 °C and 5% CO2. After 48 hours, the media was removed and replaced with fresh new media. Cell selection was carried out using G418 (Alfa Aesar) at 1 mg/mL for 7 days, and the surviving cells were collected and analyzed for FIBCD-KO efficiency by western blot. The best candidate was used for the RB-EPP6 uptake experiments described above.
200k MDCK cells were seeded in 200 μL of complete media in the apical side transwell insert (12-well 8 μm pore size Transwell-65 mm). In addition, 1 mL of complete growth media is added to the basolateral chamber. Six transwell inserts were prepared for a TAT peptide labeled with RB (RB-[…]), and six other inserts were prepared for RB-EPP6. The plate was incubated for 2-3 days at 37 °C with 5% CO2. The electrical resistance of the MDCK transwell inserts was measured using the EVOM Epithelial Voltohmmeter to monitor the integrity of tight junctions for the following two days. On day 3, serum-free media was used to wash both the apical (200 μL) and basolateral (1 mL) wells three times. […]
The assay was carried out in apical to basolateral directions. […] After that, 80 μL of the samples were collected from each chamber for RB fluorescence intensity reading using a Synergy […]

zebrafish larvae = test: Biodistribution in zebrafish larvae, fluorescence microscopy; assay type: in vivo; conditions: larvae 6 dpf, 1 h incubation; compared with free rhodamine dye and RB-GSQTH control
Caco2 = test: RB-EPP6 uptake in Caco2 cells; assay type: cell-based; conditions: RB conjugate
U87 cells = test: Cell viability by YOYO staining, flow cytometry; assay type: cell-based, human; conditions: RB-EPP6 20 nM to 100 μM
Description: Confocal imaging experiments
To image the cells, a Zeiss 880 inverted confocal laser scanning microscope (Carl Zeiss, Germany) was used. Image acquisition and analyses were carried out using the manufacturer’s software (ZEN, Carl Zeiss). Quantification of fluorescence intensity in single cells was performed using Fiji […]
Flow cytometry experiments
To perform flow cytometry experiments, a NovoCyte flow cytometer (NovoExpress) was used.
Quantification of fluorescence intensity was achieved using the Novoxpress software. Fifty thousand cells were analyzed for each condition. A green fluorescent dye used for DNA staining, YOYO, was included in all the flow cytometry experiments, serving as a cell live/dead indicator.
[…]
2 μL of RB-EPP (in DMSO) was added to the solution at a concentration of 500 μM. […] Samples were collected from both phases and quantified by Analytical HPLC separately. […]

Structure (SMILES): CCN(CC)c1ccc2c(-c3ccccc3C(=O)N(C)CCCC(=O)N[C@H]3Cc4cn(nn4)CCCC[C@@H](C(N)=O)NC(=O)[C@H](CO)NC(=O)[C@H](Cc4ccc(O)cc4)NC(=O)[C@H](Cc4ccc(O)cc4)NC(=O)[C@H](CO)NC(=O)[C@H](Cc4ccc(O)cc4)NC3=O)c3ccc(=[N+](CC)CC)cc-3oc2c1 [RB-EPP6, RB-cy(YSYYS)] (RhodamineB-[NMeGABA][Pra]YSYYS[Lys(N3)]-NH2; triazole 2-8)
- Kd (full-length FIBCD1): ~0.2 µM
- Papp (MDCK cell monolayers): 5.25 × 10^–6
- Papp compared with RB-TAT47–57 (MDCK cell monolayers): more than twice
- tissue accumulation in zebrafish larvae (zebrafish larvae): preferentially accumulated in the olfactory pit and neuromasts
- uptake in Caco2 cells (Caco2): did not exhibit EPP6 uptake
- effect on cell viability (U87 cells): without affecting cell viability
